The numbers were not newly measured in US20090054334A1, “Combinatorial improvement of bifunctional drug properties” (priority 2007, published 2009), which cites them from elsewhere.

Molecules are shown by their SMILES.

For orientation: bioavailability means the share of a dose that reaches the circulation, judged against a reference dose that is usually intravenous.

For data set [1] the following is noted: in vivo.
The conditions of data set [2]: in vivo. This is another data set of the same source.

Consider `C=CC[C@@H]1/C=C(\C)C[C@H](C)C[C@H](OC)[C@H]2O[C@@](O)(C(=O)C(=O)N3CCCC[C@H]3C(=O)O[C@H](/C(C)=C/[C@@H]3CC[C@@H](O)[C@H](OC)C3)[C@H](C)[C@@H](O)CC1=O)[C@H](C)C[C@@H]2OC` [FK506], for which, in data set [1], the bioavailability is listed as 20% and the half life is 11.3 h. Further, in data set [2], the “distribution into protected cellular compartments, in the blood” value is recorded as 72-98%.
On to `CCC(C)(C)C(=O)C(=O)N1CCC[C@H]1C(=O)O` [GPI-1485], for which, in data set [1], the bioavailability is recorded as 50% and the blood-brain barrier crossing result is listed as “crosses the blood-brain barrier”.
